Experiment [1] is filed under the species Homo sapiens. Briefly: Binding affinity to biotin-labeled human recombinant laminin-2 at 10 ug/ml in pH 7.4 Tris buffer by fluorescence microarray method.
A further experiment has as its system Arachis hypogaea. Briefly: Binding affinity to biotin-labeled Arachis hypogaea agglutinin in pH 7.4 Tris buffer by fluorescence microarray method.
The subject of another experiment is Canavalia ensiformis. Briefly: Binding affinity to biotin-labeled Canavalia ensiformis agglutinin in pH 7.4 Tris buffer by fluorescence microarray method.
In another experiment the test system is Erythrina crista-galli. Briefly: Binding affinity to biotin-labeled Erythrina crista-galli agglutinin in pH 7.4 Tris buffer by fluorescence microarray method.
The next experiment deals with Datura stramonium. Briefly: Binding affinity to biotin-labeled Datura stramonium agglutinin in pH 7.4 Tris buffer by fluorescence microarray method.
Experiment [2] concerns the target Laminin subunit alpha-1 (Homo sapiens) (UniProt P25391). Briefly: Binding affinity to biotin-labeled human recombinant laminin-1 at 10 ug/ml in pH 5.6 MES buffer by fluorescence microarray method.
Experiment [3] is described as follows: Binding affinity to biotin-labeled Agaricus bisporus agglutinin in pH 7.4 Tris buffer by fluorescence microarray method.
Experiment [4] is filed under the species Homo sapiens. Briefly: Binding affinity to biotin-labeled human recombinant laminin-2 at 10 ug/ml in 5.6 MES buffer by fluorescence microarray method.
The next experiment deals with Triticum aestivum. Briefly: Binding affinity to biotin-labeled Wheat germ agglutinin in pH 7.4 Tris buffer by fluorescence microarray method.
For experiment [5], the target named is Lactotransferrin (Homo sapiens) (UniProt P02788). Briefly: Binding affinity to biotin-labeled lactoferrin (unknown origin) at 10 ug/ml in pH 7.4 Tris buffer by fluorescence microarray method.
Sequence of Lactotransferrin (Homo sapiens) (P02788 whole entry): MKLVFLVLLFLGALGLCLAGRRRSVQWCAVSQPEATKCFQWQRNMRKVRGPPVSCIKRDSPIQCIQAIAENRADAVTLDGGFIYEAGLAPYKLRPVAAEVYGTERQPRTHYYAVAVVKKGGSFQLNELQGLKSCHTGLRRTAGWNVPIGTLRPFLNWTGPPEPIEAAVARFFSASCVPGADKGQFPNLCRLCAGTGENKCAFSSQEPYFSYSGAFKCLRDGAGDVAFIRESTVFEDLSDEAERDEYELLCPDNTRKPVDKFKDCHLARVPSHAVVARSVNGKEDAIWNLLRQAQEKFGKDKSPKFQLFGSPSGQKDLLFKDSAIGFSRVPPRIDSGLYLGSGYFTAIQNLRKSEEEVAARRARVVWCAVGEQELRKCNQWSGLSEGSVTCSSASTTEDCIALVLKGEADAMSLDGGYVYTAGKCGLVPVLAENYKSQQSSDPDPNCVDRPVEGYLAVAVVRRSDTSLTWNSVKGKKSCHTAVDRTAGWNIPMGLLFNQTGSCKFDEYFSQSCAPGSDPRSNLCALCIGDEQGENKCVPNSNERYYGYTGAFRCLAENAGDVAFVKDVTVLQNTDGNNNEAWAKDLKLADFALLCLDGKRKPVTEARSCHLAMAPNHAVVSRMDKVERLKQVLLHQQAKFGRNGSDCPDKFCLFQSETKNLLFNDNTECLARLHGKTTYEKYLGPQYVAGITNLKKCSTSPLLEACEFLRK
Experiment [6] shares this target. Briefly: Binding affinity to biotin-labeled lactoferrin (unknown origin) at 10 ug/ml in pH 5.6 MES buffer by fluorescence microarray method.
The target in experiment [7] is Laminin subunit alpha-1 (Homo sapiens) (UniProt P25391). Briefly: Binding affinity to biotin-labeled human recombinant laminin-1 at 10 ug/ml in pH 7.4 Tris buffer by fluorescence microarray method.
Sequence of Laminin subunit alpha-1 (Homo sapiens) (P25391 whole entry): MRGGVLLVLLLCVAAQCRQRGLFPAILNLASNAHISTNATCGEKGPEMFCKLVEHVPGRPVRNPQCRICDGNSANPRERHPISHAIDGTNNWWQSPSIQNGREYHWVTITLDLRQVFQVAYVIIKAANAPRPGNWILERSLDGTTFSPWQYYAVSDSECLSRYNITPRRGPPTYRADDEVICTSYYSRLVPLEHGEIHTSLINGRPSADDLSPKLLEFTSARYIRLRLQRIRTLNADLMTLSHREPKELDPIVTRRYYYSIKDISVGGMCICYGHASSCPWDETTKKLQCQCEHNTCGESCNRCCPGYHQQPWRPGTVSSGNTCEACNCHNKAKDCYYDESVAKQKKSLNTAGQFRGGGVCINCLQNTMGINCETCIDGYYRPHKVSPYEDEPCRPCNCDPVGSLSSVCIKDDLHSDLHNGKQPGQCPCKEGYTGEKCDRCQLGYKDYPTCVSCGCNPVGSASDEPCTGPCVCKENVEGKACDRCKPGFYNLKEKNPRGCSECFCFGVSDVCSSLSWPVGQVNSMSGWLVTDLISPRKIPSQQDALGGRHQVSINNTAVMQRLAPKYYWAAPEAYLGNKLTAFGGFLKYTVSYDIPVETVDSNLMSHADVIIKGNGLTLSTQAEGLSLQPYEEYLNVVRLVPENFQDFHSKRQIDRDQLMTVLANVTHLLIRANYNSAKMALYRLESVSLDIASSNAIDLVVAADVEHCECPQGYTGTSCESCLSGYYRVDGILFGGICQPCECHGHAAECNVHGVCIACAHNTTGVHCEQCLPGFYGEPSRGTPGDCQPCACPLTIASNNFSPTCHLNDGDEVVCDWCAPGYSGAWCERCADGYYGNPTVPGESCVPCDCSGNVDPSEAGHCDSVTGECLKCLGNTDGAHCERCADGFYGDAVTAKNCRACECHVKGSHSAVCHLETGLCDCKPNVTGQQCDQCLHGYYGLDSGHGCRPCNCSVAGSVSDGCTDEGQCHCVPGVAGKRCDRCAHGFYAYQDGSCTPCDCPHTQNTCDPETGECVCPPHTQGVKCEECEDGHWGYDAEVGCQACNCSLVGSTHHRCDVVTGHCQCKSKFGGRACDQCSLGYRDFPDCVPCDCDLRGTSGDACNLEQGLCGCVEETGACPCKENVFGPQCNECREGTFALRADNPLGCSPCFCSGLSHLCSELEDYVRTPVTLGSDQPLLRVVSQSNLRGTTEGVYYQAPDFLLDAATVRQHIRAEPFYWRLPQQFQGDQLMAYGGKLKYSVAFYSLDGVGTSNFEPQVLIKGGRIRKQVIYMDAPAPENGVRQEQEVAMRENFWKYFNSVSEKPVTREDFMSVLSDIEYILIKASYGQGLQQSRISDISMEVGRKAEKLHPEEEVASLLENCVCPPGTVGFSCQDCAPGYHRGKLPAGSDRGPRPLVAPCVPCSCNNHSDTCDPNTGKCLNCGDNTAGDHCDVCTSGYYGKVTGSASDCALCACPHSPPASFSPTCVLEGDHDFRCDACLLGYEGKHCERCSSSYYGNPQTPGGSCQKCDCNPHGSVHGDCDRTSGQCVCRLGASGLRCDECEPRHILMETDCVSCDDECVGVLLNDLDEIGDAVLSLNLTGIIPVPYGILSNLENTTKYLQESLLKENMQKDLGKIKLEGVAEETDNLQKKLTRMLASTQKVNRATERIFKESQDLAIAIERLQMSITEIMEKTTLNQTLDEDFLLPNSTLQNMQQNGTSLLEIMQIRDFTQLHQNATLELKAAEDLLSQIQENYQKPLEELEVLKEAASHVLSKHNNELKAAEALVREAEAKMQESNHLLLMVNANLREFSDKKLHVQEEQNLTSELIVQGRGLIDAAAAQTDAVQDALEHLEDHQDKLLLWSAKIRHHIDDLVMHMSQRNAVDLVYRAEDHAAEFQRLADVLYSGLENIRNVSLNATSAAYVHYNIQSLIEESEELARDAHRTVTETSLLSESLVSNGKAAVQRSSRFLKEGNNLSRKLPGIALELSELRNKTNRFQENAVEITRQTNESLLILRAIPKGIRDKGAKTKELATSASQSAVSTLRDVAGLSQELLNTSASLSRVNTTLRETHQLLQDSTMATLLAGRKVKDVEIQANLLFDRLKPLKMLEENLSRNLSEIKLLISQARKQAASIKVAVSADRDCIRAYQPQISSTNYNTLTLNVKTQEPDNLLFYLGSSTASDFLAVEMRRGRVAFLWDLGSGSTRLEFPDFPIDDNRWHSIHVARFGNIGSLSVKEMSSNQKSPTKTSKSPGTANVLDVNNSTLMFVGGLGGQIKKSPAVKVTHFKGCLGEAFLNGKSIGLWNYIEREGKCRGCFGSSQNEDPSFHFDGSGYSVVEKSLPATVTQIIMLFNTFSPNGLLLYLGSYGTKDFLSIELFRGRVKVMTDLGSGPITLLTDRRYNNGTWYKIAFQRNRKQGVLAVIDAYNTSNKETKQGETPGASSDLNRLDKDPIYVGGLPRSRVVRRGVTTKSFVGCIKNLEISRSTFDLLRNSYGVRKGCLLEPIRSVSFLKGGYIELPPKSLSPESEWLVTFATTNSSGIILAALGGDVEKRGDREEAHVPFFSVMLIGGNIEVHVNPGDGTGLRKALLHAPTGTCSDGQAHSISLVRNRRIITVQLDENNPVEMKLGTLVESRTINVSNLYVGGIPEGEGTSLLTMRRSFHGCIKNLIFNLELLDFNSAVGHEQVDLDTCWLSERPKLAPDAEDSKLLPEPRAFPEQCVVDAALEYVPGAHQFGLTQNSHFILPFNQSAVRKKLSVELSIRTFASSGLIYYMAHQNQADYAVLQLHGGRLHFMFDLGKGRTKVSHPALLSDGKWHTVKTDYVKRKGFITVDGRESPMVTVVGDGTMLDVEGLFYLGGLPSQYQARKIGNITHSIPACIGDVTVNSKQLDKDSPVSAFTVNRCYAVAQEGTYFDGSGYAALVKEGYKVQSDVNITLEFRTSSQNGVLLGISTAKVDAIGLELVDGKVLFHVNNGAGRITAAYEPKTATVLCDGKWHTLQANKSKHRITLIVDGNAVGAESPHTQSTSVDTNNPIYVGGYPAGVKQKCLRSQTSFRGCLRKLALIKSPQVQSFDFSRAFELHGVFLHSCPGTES
The test system of a further experiment is Maackia amurensis. Briefly: Binding affinity to biotin-labeled Maackia amurensis agglutinin in pH 7.4 Tris buffer by fluorescence microarray method.
Experiment [8] deals with Sambucus racemosa subsp. sieboldiana. Briefly: Binding affinity to biotin-labeled Sambucus sieboldiana agglutinin in pH 7.4 Tris buffer by fluorescence microarray method.

The source made the active and inactive calls. The calls are words filed in the database; no cut-off is given here. Peptide text beside a SMILES is read from it. * marks the point of attachment. X1 = CC(=O)N[C@H]1[C@H](O[C@H]2[C@@H](O)[C@H](O)[C@@H](CO)O[C@@H]2*)O[C@H](CO)[C@@H](O[C@@H]2O[C@H](CO)[C@H](O)[C@H](O[C@]3(C(=O)O)C[C@H](O)[C@@H](NC(C)=O)[C@H]([C@H](O)[C@H](O)CO)O3)[C@H]2O)[C@@H]1O; X2 = CC(=O)N[C@H]1[C@H](O[C@H]2[C@@H](O)[C@H](O)[C@@H](CO)O[C@@H]2*)O[C@H](CO)[C@@H](O[C@@H]2O[C@H](CO)[C@H](O)[C@H](O)[C@H]2O)[C@@H]1O; GlcNAc(β1-2)αMan = CC(=O)N[C@H]1[C@H](O[C@H]2[C@@H](O)[C@H](O)[C@@H](CO)O[C@@H]2*)O[C@H](CO)[C@@H](O)[C@@H]1O; Hexanoyl(5-oxo) = CC(=O)CCCC(=O)*

On to `CC[C@H](C)[C@H](NC(=O)[C@H](C)NC(=O)CNC(=O)[C@H](CCCNC(=N)N)NC(=O)[C@@H](NC(=O)CCCC(C)=O)[C@@H](C)O)C(=O)N[C@H](C(=O)N[C@@H](CCC(N)=O)C(=O)N[C@H](C(=O)N1CCC[C@H]1C(=O)N[C@H](C(=O)N[C@@H](CC(C)C)C(=O)NCC(=O)N1CCC[C@H]1C(=O)N[C@H](C(=O)N[C@@H](CCC(N)=O)C(=O)N1CCC[C@H]1C(=O)N[C@H](C(=O)N[C@@H](CCCNC(=N)N)C(=O)N[C@H](C(N)=O)C(C)C)[C@@H](C)O[C@H]1O[C@H](CO)[C@@H](O)[C@H](O)[C@@H]1O[C@@H]1O[C@H](CO)[C@@H](O)[C@H](O)[C@H]1NC(C)=O)[C@@H](C)CC)[C@@H](C)O[C@H]1O[C@H](CO)[C@@H](O)[C@H](O)[C@@H]1O[C@@H]1O[C@H](CO)[C@@H](O[C@@H]2O[C@H](CO)[C@H](O)[C@H](O)[C@H]2O)[C@H](O)[C@H]1NC(C)=O)[C@@H](C)O)[C@@H](C)CC` ({Hexanoyl(5-oxo)}-TRGAIIQTPT(X2)LGPIQPT(GlcNAc(β1-2)αMan)RV-NH2), for which the result (in the experiment listed under Homo sapiens [1]; in the experiment with Datura stramonium; in [5]; in the experiment on Maackia amurensis) was inactive. The outcome (in the experiment on Arachis hypogaea; with Canavalia ensiformis; with Erythrina crista-galli; in experiment [2]; in [3]; in the experiment filed under Homo sapiens [4]) was Active. Also, the outcome (in the experiment on Triticum aestivum; in experiment [6]; in experiment [7]; in experiment [8]) was Active.

As to `CC[C@H](C)[C@H](NC(=O)[C@H](C)NC(=O)CNC(=O)[C@H](CCCNC(=N)N)NC(=O)[C@@H](NC(=O)CCCC(C)=O)[C@@H](C)O)C(=O)N[C@H](C(=O)N[C@@H](CCC(N)=O)C(=O)N[C@H](C(=O)N1CCC[C@H]1C(=O)N[C@H](C(=O)N[C@@H](CC(C)C)C(=O)NCC(=O)N1CCC[C@H]1C(=O)N[C@H](C(=O)N[C@@H](CCC(N)=O)C(=O)N1CCC[C@H]1C(=O)N[C@H](C(=O)N[C@@H](CCCNC(=N)N)C(=O)N[C@H](C(N)=O)C(C)C)[C@@H](C)O[C@H]1O[C@H](CO)[C@@H](O)[C@H](O)[C@@H]1O[C@@H]1O[C@H](CO)[C@@H](O[C@@H]2O[C@H](CO)[C@H](O)[C@H](O)[C@H]2O)[C@H](O)[C@H]1NC(C)=O)[C@@H](C)CC)[C@@H](C)O[C@H]1O[C@H](CO)[C@@H](O)[C@H](O)[C@@H]1O[C@@H]1O[C@H](CO)[C@@H](O[C@@H]2O[C@H](CO)[C@H](O)[C@H](O)[C@H]2O)[C@H](O)[C@H]1NC(C)=O)[C@@H](C)O)[C@@H](C)CC` ({Hexanoyl(5-oxo)}-TRGAIIQTPT(X2)LGPIQPT(X2)RV-NH2), the outcome (in the experiment listed under Homo sapiens [1]; with Datura stramonium; in experiment [5]; in the experiment on Maackia amurensis) was inactive. The result (with Arachis hypogaea; with Canavalia ensiformis; in the experiment on Erythrina crista-galli; in [2]; in [3]; in the experiment listed under Homo sapiens [4]) was Active. Besides, the result (in the experiment with Triticum aestivum; in experiment [6]; in experiment [7]; in experiment [8]) was Active.

As for `CC[C@H](C)[C@H](NC(=O)[C@H](C)NC(=O)CNC(=O)[C@H](CCCNC(=N)N)NC(=O)[C@@H](NC(=O)CCCC(C)=O)[C@@H](C)O)C(=O)N[C@H](C(=O)N[C@@H](CCC(N)=O)C(=O)N[C@H](C(=O)N1CCC[C@H]1C(=O)N[C@H](C(=O)N[C@@H](CC(C)C)C(=O)NCC(=O)N1CCC[C@H]1C(=O)N[C@H](C(=O)N[C@@H](CCC(N)=O)C(=O)N1CCC[C@H]1C(=O)N[C@H](C(=O)N[C@@H](CCCNC(=N)N)C(=O)N[C@H](C(N)=O)C(C)C)[C@@H](C)O)[C@@H](C)CC)[C@@H](C)O[C@H]1O[C@H](CO)[C@@H](O)[C@H](O)[C@@H]1O[C@@H]1O[C@H](CO)[C@@H](O[C@@H]2O[C@H](CO)[C@H](O)[C@H](O)[C@H]2O)[C@H](O)[C@H]1NC(C)=O)[C@@H](C)O)[C@@H](C)CC` ({Hexanoyl(5-oxo)}-TRGAIIQTPT(X2)LGPIQPTRV-NH2), the outcome (in the experiment filed under Homo sapiens [1]; in the experiment on Datura stramonium; in [5]; in the experiment with Maackia amurensis) was inactive. In addition, the result (in the experiment on Arachis hypogaea; in the experiment on Canavalia ensiformis; in the experiment on Erythrina crista-galli; in [2]; in [3]; in the experiment filed under Homo sapiens [4]) was Active. Besides, the outcome (in the experiment on Triticum aestivum; in experiment [6]; in [7]; in experiment [8]) was Active.

Consider `CC[C@H](C)[C@H](NC(=O)[C@H](C)NC(=O)CNC(=O)[C@H](CCCNC(=N)N)NC(=O)[C@@H](NC(=O)CCCC(C)=O)[C@@H](C)O)C(=O)N[C@H](C(=O)N[C@@H](CCC(N)=O)C(=O)N[C@H](C(=O)N1CCC[C@H]1C(=O)N[C@H](C(=O)N[C@@H](CC(C)C)C(=O)NCC(=O)N1CCC[C@H]1C(=O)N[C@H](C(=O)N[C@@H](CCC(N)=O)C(=O)N1CCC[C@H]1C(=O)N[C@H](C(=O)N[C@@H](CCCNC(=N)N)C(=O)N[C@H](C(N)=O)C(C)C)[C@@H](C)O[C@H]1O[C@H](CO)[C@@H](O)[C@H](O)[C@@H]1O[C@@H]1O[C@H](CO)[C@@H](O)[C@H](O)[C@H]1NC(C)=O)[C@@H](C)CC)[C@@H](C)O)[C@@H](C)O)[C@@H](C)CC` ({Hexanoyl(5-oxo)}-TRGAIIQTPTLGPIQPT(GlcNAc(β1-2)αMan)RV-NH2), for which the result (in the experiment filed under Homo sapiens [1]; with Datura stramonium; in experiment [5]; with Maackia amurensis) was inactive. Besides, the result (in the experiment on Arachis hypogaea; in the experiment on Canavalia ensiformis; with Erythrina crista-galli; in experiment [2]; in experiment [3]; in the experiment listed under Homo sapiens [4]) was Active. Further, the result (in the experiment with Triticum aestivum; in [6]; in experiment [7]; in experiment [8]) was Active.

Regarding `CC[C@H](C)[C@H](NC(=O)[C@H](C)NC(=O)CNC(=O)[C@H](CCCNC(=N)N)NC(=O)[C@@H](NC(=O)CCCC(C)=O)[C@@H](C)O)C(=O)N[C@H](C(=O)N[C@@H](CCC(N)=O)C(=O)N[C@H](C(=O)N1CCC[C@H]1C(=O)N[C@H](C(=O)N[C@@H](CC(C)C)C(=O)NCC(=O)N1CCC[C@H]1C(=O)N[C@H](C(=O)N[C@@H](CCC(N)=O)C(=O)N1CCC[C@H]1C(=O)N[C@H](C(=O)N[C@@H](CCCNC(=N)N)C(=O)N[C@H](C(N)=O)C(C)C)[C@@H](C)O[C@H]1O[C@H](CO)[C@@H](O)[C@H](O)[C@@H]1O[C@@H]1O[C@H](CO)[C@@H](O[C@@H]2O[C@H](CO)[C@H](O)[C@H](O[C@]3(C(=O)O)C[C@H](O)[C@@H](NC(C)=O)[C@H]([C@H](O)[C@H](O)CO)O3)[C@H]2O)[C@H](O)[C@H]1NC(C)=O)[C@@H](C)CC)[C@@H](C)O)[C@@H](C)O)[C@@H](C)CC` ({Hexanoyl(5-oxo)}-TRGAIIQTPTLGPIQPT(X1)RV-NH2), the result (in the experiment filed under Homo sapiens [1]; in the experiment with Datura stramonium; in [5]; in the experiment on Maackia amurensis) was inactive. For the same compound, the result (in the experiment on Arachis hypogaea; in the experiment with Canavalia ensiformis; with Erythrina crista-galli; in [2]; in [3]; in the experiment filed under Homo sapiens [4]) was Active. Besides, the result (in the experiment with Triticum aestivum; in experiment [6]; in experiment [7]; in [8]) was Active.
